Assays:
[1] = test system: A-to-I RNA editing reporter (ADAR) in A375; assay: A-to-I PepTile (REPTILE) screen: A-to-I editing of dsRNA hairpin reporter by NGS; format: cell-based, human; conditions: for % A-to-I editing (IFNα): IFNα 6000 U/ml for 48 hours; for % A-to-I editing (Basal): no treatment
Description: (§1) FIGS. 12A-12D. A-to-I PepTile screen. (A) Composition of A-to-I PepTile linrary screen, and schematic description of the lentiviral expression vector. (B) Experimental workflow. A375 cells were transduced at low MOI, and then treated or not with IFNα for 48 hrs. RNA was extracted and Peptide_ADARreporter RNA species were amplified and sequenced by NGS. (C) Dot plot of A-to-I PepTile library effect on A-to-I editing with or without IFNα treatment. Red line is the mean A-to-I editing of all the 8088 peptides (>100 read counts) no treatment: 25.75% IFNα: 37.6%. (D) Dot plot of A-to-I PepTile library fitness effect upon IFNα for 48 hrs.
FIGS. 17A-17F show A-to-I RNA Editing PiTile (REPTILE) screen in A375. (A) A-to-I RNA Editing PiTile (REPTILE) library design consist of fragmentation of all known ADAR1, ADAR2 interactors and all human double stranded RNA-binding protein into 40 amino acid long peptide. This library was then cloned into a lentivirus vector that also encode a DNA-encoded RNA loop reporter (A-to-I Rep) that is edited by ADAR proteins in cells at the RNA level. When the construct is expressed, the RNA loop gets edited on a single Adenosine, while the 40-mer peptide get expressed at the protein level. Then we can measure the impact of the peptide expression on the editing rate of the RNA loop reporter by sequencing (NGS and Sanger). (B) Experimental workflow of REPTILE screen in A375 cell line. Cells were transduced with the REPTILE library, and then treated for 48 hours with IFNα. Following the treatment, RNA was harvested, converted into cDNA and amplicon library containing peptide Identity (barcode) linked to the RNA loop reporter were prepared for NGS. (C) Result of the A375 REPTILE screen in the no treatment condition. Each dot represents a unique peptide that is associated with an A-to-I editing rate that was measured on the RNA loop. (D) Result of the A375 REPTILE screen in the IFNα condition. Each dot represents a unique peptide that is associated with an A-to-I editing rate that was measured on the RNA loop. Red line represent the A-to-I editing mean, Dash blue line represent 2 times the standard deviation of the % A-to-I editing across all the datasets. This cutoff was used to defined peptides hits that modulate RNA A-to-I editing. (E) Peptide A-to-I Inhibitor Hits intersection between no treatment (% A-to-I editing<15%) and IFNα (% A-to-I editing<27%) conditions. (F) Peptide A-to-I Enhancers Hits intersection between no treatment (% A-to-I editing>36%) and IFNα (% A-to-I editing>47%) conditions.
Provided herein is a screening methodology to measure the effect of small peptide on A-to-I RNA editing in situ and screen thousands of peptides in a single experiment. First, a library of peptides with the potential of impairing A-to-I editing was designed and built. ADAR enzymes edit RNA only on double-stranded RNA structures and via ADAR's double stranded RNA-Binding Domain (dsRBD). […] The A-to-I PepTile library is composed of 19 Human proteins having dsRBD and 34 known protein-protein interactors of ADAR1/2. All these proteins were tiled into 40-mer peptides every 4 amino acids (FIG. 12A). To measure A-to-I editing, a biosensor consisting of a 71 bp dsRNA hairpin structure that gets A-to-I edited at a rate of 25% in A375 melanoma cells, and ~37% upon IFNα treatment was used. This A-to-I editing reporter is fused with DNA sequence encoding for a peptide from the A-to-I PepTile library. The A-to-I PepTile plasmid pool (10304 elements) was used to produced lentiviruses and transduced A375 cells at a low multiplicity of infection (MOI) (FIG. 12B). A part of the infected cells was treated with IFNα at 6000 U/ml for 48 hours, and then bulk RNA of the basal and treated condition was harvested. RNA was then retrotranscribed into cDNA and sequenced by Next-Generation Sequencing (NGS). […]

A375 cells = assay: A-to-I PepTile screen: fitness effect upon IFNα (PepTile abundance untreated vs treated); format: cell-based, human
Description: as §1
Provided herein is a screening methodology to measure the effect of small peptide on A-to-I RNA editing in situ and screen thousands of peptides in a single experiment. First, a library of peptides with the potential of impairing A-to-I editing was designed and built. ADAR enzymes edit RNA only on double-stranded RNA structures and via ADAR's double stranded RNA-Binding Domain (dsRBD). […] The A-to-I PepTile library is composed of 19 Human proteins having dsRBD and 34 known protein-protein interactors of ADAR1/2. All these proteins were tiled into 40-mer peptides every 4 amino acids (FIG. 12A). To measure A-to-I editing, a biosensor consisting of a 71 bp dsRNA hairpin structure that gets A-to-I edited at a rate of 25% in A375 melanoma cells, and ~37% upon IFNα treatment was used. This A-to-I editing reporter is fused with DNA sequence encoding for a peptide from the A-to-I PepTile library. The A-to-I PepTile plasmid pool (10304 elements) was used to produced lentiviruses and transduced A375 cells at a low multiplicity of infection (MOI) (FIG. 12B). A part of the infected cells was treated with IFNα at 6000 U/ml for 48 hours, and then bulk RNA of the basal and treated condition was harvested. RNA was then retrotranscribed into cDNA and sequenced by Next-Generation Sequencing (NGS). With the sequencing data, the A-to-I editing percentage of the RNA reporter for each PepTile is calculated since both elements are encoded on the same transcript. Moreover, with this screen one can also measure the abundance of the PepTiles between the untreated and treated conditions and determine Fitness score associated to every PepTile. To ensure a robust and more accurate A-to-I editing % estimation a cut-off of 100 read counts was set for each PepTile. […] SEQ ID NOs: 2125-2147 are A-to-I peptide inhibitors and SEQ ID NOs: 2148-2210 are A-to-I activators. In addition, 117 PepTiles were identified that either synergize (SEQ ID NOs: 2211-2243) or protect (SEQ ID NOs: 2244-2327) to IFNα-induced cell death (FIG. 12D and Table 5). These PepTiles are potential new therapeutic agents that can modulate the Interferon pathway. They may be beneficial in treating inflammatory conditions and may also enhance the effectiveness of cancer immunotherapy through synergistic effects.

[2] = IFNα 6000 U/ml for 48 hours vs untreated

MFPAVCAHSKKQGKQEAADAALRVLIGENEKAERMGFTEVT [ADAR_193]
% A-to-I editing (IFNα) [1]: 22.77% | % A-to-I editing (Basal) [1]: 11.47% | Fitness Score IFNα (A375 cells; [2]): 0.57

MFSSRGINFRTRHLMQDLRMLMPHSKADTKMDRKDKLFVIN [BRIX1_17]
% A-to-I editing (IFNα) [1]: 47.02% | % A-to-I editing (Basal) [1]: 38.66% | Fitness Score IFNα (A375 cells; [2]): 1.21

MGELSSADEKRYRALKRTAERELLMNADVICCTCVGAGDPR [UPF1_147]
% A-to-I editing (IFNα) [1]: 24.68% | % A-to-I editing (Basal) [1]: 13.30% | Fitness Score IFNα (A375 cells; [2]): -0.63

MGFRGNSGGDYRGPSGGYRGSGGFQRGGGRGAYGTGYFGQG [DHX9_307]
% A-to-I editing (IFNα) [1]: 47.59% | % A-to-I editing (Basal) [1]: 40.04% | Fitness Score IFNα (A375 cells; [2]): 1.50

MGLSPSIDTLDHIRALDRLQEVPHEGPMCDLLWSDPDDRGG [PPP2CB_43]
% A-to-I editing (IFNα) [1]: 62.33% | % A-to-I editing (Basal) [1]: 46.04% | Fitness Score IFNα (A375 cells; [2]): -0.38

MGPGDAVRRVLECVATGTLLTDGPGLQDPCERDQTDALEPM [ZFR2_208]
% A-to-I editing (IFNα) [1]: 51.37% | % A-to-I editing (Basal) [1]: 37.66% | Fitness Score IFNα (A375 cells; [2]): 0.67

MGRRSSGGGRYRNRSPSDSDMEDYSPPPSLSEVARKMKKKE [NIPBL_285]
% A-to-I editing (IFNα) [1]: 47.59% | % A-to-I editing (Basal) [1]: 42.29% | Fitness Score IFNα (A375 cells; [2]): 1.59

MIIYDEYMMDTVISLLTGLSDSQVRAFRHTSTLAAMKLMTA [STAG1_49]
% A-to-I editing (IFNα) [1]: 48.18% | % A-to-I editing (Basal) [1]: 44.91% | Fitness Score IFNα (A375 cells; [2]): 0.55

MIQDPAQAEAYTIYWLVAALAPLVAAPPRPSQGRLAGREWS [UBE2I_32]
% A-to-I editing (IFNα) [1]: 47.26% | % A-to-I editing (Basal) [1]: 44.43% | Fitness Score IFNα (A375 cells; [2]): -0.02

MKECVDHLSRDEDEEKLVASLWGAERCLRVLESVTVHNPEN [WAPAL_208]
% A-to-I editing (IFNα) [1]: 50.33% | % A-to-I editing (Basal) [1]: 50.48% | Fitness Score IFNα (A375 cells; [2]): 1.55

MKEHMDAINHDTKELEKMTNRQGMLLKKKEECMKKIRELGS [SMC3_228]
% A-to-I editing (IFNα) [1]: 23.22% | % A-to-I editing (Basal) [1]: 13.27% | Fitness Score IFNα (A375 cells; A375, PepTile abundance upon IFNα treatment, negative = synthetic lethal, positive = protector): -3.54 | Fitness Score IFNα (A375 cells; [2]): -3.54

MKKNIAAERKEAKQEKEEADRYQRLKDEVVRAQVQLQLFKL [SMC1A_48]
% A-to-I editing (IFNα) [1]: 26.12% | % A-to-I editing (Basal) [1]: 11.19% | Fitness Score IFNα (A375 cells; [2]): 1.61

MKTPIQVLHEYGMKTKNIPVYECERSDVQIHVPTFTFRVTV [PRKRA_9]
% A-to-I editing (IFNα) [1]: 48.95% | % A-to-I editing (Basal) [1]: 43.02% | Fitness Score IFNα (A375 cells; [2]): -0.21

MKVPAVPVQWGNCGDTGTRSAGPLRRNYNFIAAVVEKVAPS [HTRA4_36]
% A-to-I editing (IFNα) [1]: 25.56% | % A-to-I editing (Basal) [1]: 12.55% | Fitness Score IFNα (A375 cells; [2]): 0.18

MLANFGPRINDIKRIIQSREREMKDLKEKMNQVEDEVFEEF [SMC1A_186]
% A-to-I editing (IFNα) [1]: 56.93% | % A-to-I editing (Basal) [1]: 55.39% | Fitness Score IFNα (A375 cells; [2]): 0.69
